“Also recorded” adds a separate entry of the source. Where two headings read alike, the source gives them in different places.
Key:
[1] = tested on: Escherichia coli K-12 MG1655; test: Screening for tolerance in wild-type cells: growth in varying concentrations of diols (Biolector); assay type: cell-based; conditions: for growth observed at maximum concentration / Maximum concentration for robust growth: K-12 MG1655; for toxicity threshold: E. coli
K-12 MG1655 = assay type: cell-based, Escherichia coli
E. coli K-12 MG1655 = assay type: cell-based
[2] = growth rate of K-12 MG1655, diol 0.5% (v/v), M9+1% glucose, 37° C.
[3] = growth rate of K-12 MG1655, diol 1% (v/v)
[4] = growth rate of K-12 MG1655, diol 2% (v/v)
[5] = growth rate of K-12 MG1655, diol 3.5% (v/v)
[6] = growth rate of K-12 MG1655, diol 5% (v/v)
[7] = growth rate of K-12 MG1655, diol 7.5% (v/v)
[8] = growth rate of K-12 MG1655, diol 10% (v/v)
[9] = lag time of K-12 MG1655, diol 0.5% (v/v)
[10] = lag time of K-12 MG1655, diol 1% (v/v)
[11] = lag time of K-12 MG1655, diol 2% (v/v)
[12] = lag time of K-12 MG1655, diol 3.5% (v/v)
[13] = lag time of K-12 MG1655, diol 5% (v/v)
[14] = K-12 MG1655, diol 1 % (v/v), Growth Profiler
[15] = K-12 MG1655, diol 2 % (v/v), Growth Profiler
[16] = K-12 MG1655, diol 3 % (v/v), Growth Profiler
[17] = K-12 MG1655, diol 4 % (v/v), Growth Profiler
[18] = K-12 MG1655, diol 5 % (v/v), Growth Profiler
[19] = K-12 MG1655, diol 6 % (v/v), Growth Profiler
[20] = K-12 MG1655, diol 7.5 % (v/v), Growth Profiler

SMILES	μ, mean [1, 2] [h⁻¹]	μ, mean [1, 3] [h⁻¹]	μ, mean [1, 4] [h⁻¹]	μ, mean [1, 5] [h⁻¹]	μ, mean [1, 6] [h⁻¹]	μ, mean [1, 7] [h⁻¹]	μ, mean [1, 8] [h⁻¹]	tlag, mean [1, 9] [h]	tlag, mean [1, 10] [h]	tlag, mean [1, 11] [h]	tlag, mean [1, 12] [h]	other results
CCCC(O)CO (centres unmarked) [1,2-pentanediol]	0.524	0.346	0.000	0.000	0.000	0.000	0.000	0.4	1.3			growth observed at maximum concentration [1]: 1%
CC(O)C(C)O (centres unmarked) [2,3-butanediol]	0.944	0.791	0.754	0.498	0.265	0.054	0.000	2.2	1.8	2.1	1.6	toxicity threshold [1]: 7.5 % (v/v); toxicity threshold ([1]; conversion of 7.5% (v/v)): 74.0 g/L; Maximum concentration for robust growth [1]: 5%; tlag, mean [1, 13]: -1.2 h
CSCC[C@H](N)C(=O)O [methionine, L-methionine]												effect on growth of K-12 MG1655 in 2,3-butanediol (K-12 MG1655): significantly restored; effect on growth of evolved strains in 1,2-propanediol (K-12 MG1655): did not have a significantly enhanced growth rate; also recorded: minimal effect; effect on growth of the wild-type strain in 1,2-propanediol (K-12 MG1655): significantly restored; also recorded: restore growth of the wild-type strain; effect on growth rate of evolved strains in 2,3-butanediol (K-12 MG1655): did not have a significantly enhanced growth rate increase
OCCCO [1,3-propanediol]												tlag, mean (E. coli K-12 MG1655; [14]): 5.3 h; μ, mean (E. coli K-12 MG1655; [14]): 0.670 h⁻¹; tlag, mean (E. coli K-12 MG1655; [15]): 6.1 h; μ, mean (E. coli K-12 MG1655; [15]): 0.686 h⁻¹; tlag, mean (E. coli K-12 MG1655; [16]): 7.3 h; μ, mean (E. coli K-12 MG1655; [16]): 0.603 h⁻¹; tlag, mean (E. coli K-12 MG1655; [17]): 9.6 h; μ, mean (E. coli K-12 MG1655; [17]): 0.463 h⁻¹; tlag, mean (E. coli K-12 MG1655; [18]): 12.5 h; μ, mean (E. coli K-12 MG1655; [18]): 0.277 h⁻¹; tlag, mean (E. coli K-12 MG1655; [19]): 14.7 h; μ, mean (E. coli K-12 MG1655; [19]): 0.201 h⁻¹; tlag, mean (E. coli K-12 MG1655; [20]): 24.9 h; μ, mean (E. coli K-12 MG1655; [20]): 0.118 h⁻¹; growth inhibition of E. coli K-12 MG1655 (in words) (E. coli K-12 MG1655; variable concentrations, Growth Profiler): elicited growth inhibition
CC(O)CO (centres unmarked) [1,2-propanediol]	0.701	0.662	0.595	0.442	0.406	0.579	0.000	0.9	0.8	0.8	0.5	Maximum concentration for robust growth [1]: 7.5%; tlag, mean [1, 13]: 2.3 h; tlag, mean ([1]; lag time of K-12 MG1655, diol 7.5% (v/v)): 8.3 h
OCCCCO [1,4-butanediol]												growth inhibition of E. coli K-12 MG1655 (in words) (E. coli K-12 MG1655): elicited growth inhibition
OCCCCCO [1,5-pentanediol]	0.613	0.569	0.437	0.158	0.000	0.000	0.000	0.3	0.5	0.9	-8.8	growth observed at maximum concentration [1]: 3.5%

Reference: patent US20190309309A1, “BACTERIAL CELLS WITH IMPROVED TOLERANCE TO POLYOLS” (DANMARKS TEKNISKE UNIVERSITET, priority 2016, published 2019)
